# Measurements reported in patent US7071217B2, “Substituted oxindole derivatives as tyrosine kinase inhibitors” (SmithKline Beecham Corporation, priority 2000, dated 2006).
# Biological target: T1, TrkA (Homo sapiens, UniProt P04629)
# T1 construct: The enzyme is a GST-fusion of the intracellular domain expressed in SF9 cells; purchased Regeneron; host or cells: SF9 cells
# Experiment: TrkA tyrosine kinase substrate phosphorylation assay (Src peptide, 33P-ATP, p81 filter plates)
# Type: biochemical
# Conditions: GST-fusion of TrkA intracellular domain; 20-40 nM TrkA, 30 uM ATP, 50 uM Src peptide, RT 120 min
# Procedure: The compounds of the present invention have valuable pharmacologic properties. Different compounds from this class are particularly effective at inhibiting the trkA kinase enzyme at concentrations which range from 0.0001 to 1 μM and additionally show specificity relative to other kinases. Substrate phosphorylation assays were carried out as follows:
# Screening format: Tyrosine kinase activity is being measured using a synthetic peptide substrate. The enzyme is a GST-fusion of the intracellular domain expressed in SF9 cells. The enzyme is expressed and purified by Regeneron. The enzyme is preincubated with cold ATP and Mg to allow autophosphorylation prior to running the screen. This increases the initial rate of catalysis approximately 3 fold. The assay is performed in 96 well microtitre plates, and reaction products are detected following filtration through millipore p81 phosphocellulose plates. Assay Conditions
# T1 sequence (P04629 440-796 limits assumed, species assumed): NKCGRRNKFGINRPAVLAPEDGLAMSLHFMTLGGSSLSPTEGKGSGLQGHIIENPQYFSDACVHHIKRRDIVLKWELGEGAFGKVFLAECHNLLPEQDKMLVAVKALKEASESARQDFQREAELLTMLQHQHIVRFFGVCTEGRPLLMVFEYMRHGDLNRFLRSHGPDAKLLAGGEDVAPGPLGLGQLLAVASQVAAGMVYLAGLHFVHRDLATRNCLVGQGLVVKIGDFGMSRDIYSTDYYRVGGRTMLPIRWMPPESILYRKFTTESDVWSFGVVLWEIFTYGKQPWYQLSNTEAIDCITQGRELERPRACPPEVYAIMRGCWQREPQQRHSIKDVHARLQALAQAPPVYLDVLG
row,Compound,IC50 [nM]
1,"Cc1nnc(NS(=O)(=O)c2ccc(N/C=C3\C(=O)Nc4ccccc43)cc2)s1 [Example 4, N-(5-methyl-1,3,4-thiadiazol-2-yl)-4-{[(Z)-(2-oxo-1,2-dihydro-3H-indol-3-ylidene)methyl]amino}benzenesulfonamide]",10 to 100
2,"CNS(=O)(=O)Cc1ccc(N/N=C2\C(=O)Nc3cc(C(C)C)c(O)c(Cl)c32)cc1 [Example 1, {4-[(2Z)-2-(4-chloro-5-hydroxy-6-isopropyl-2-oxo-1,2-dihydro-3H-indol-3-ylidene)hydrazino]phenyl}-N-methylmethanesulfonamide]",< 10

# Continued, values first:
row,IC50 [nM],Compound
1,< 10,"CS(=O)(=O)Nc1ccc(N/C=C2\C(=O)Nc3ccccc32)cc1 [Example 2, N-(4-{[(Z)-(2-oxo-1,2-dihydro-3H-indol-3-ylidene)methyl]amino}phenyl)methanesulfonamide]"
2,10 to 100,"NS(=O)(=O)c1cccc(N/C=C2\C(=O)Nc3ccccc32)c1 [Example 5, 3-{[(Z)-(2-oxo-1,2-dihydro-3H-indol-3-ylidene)methyl]amino}benzenesulfonamide]"
3,10 to 100,"O=C1Nc2ccccc2/C1=C/Nc1ccc(S(=O)(=O)Nc2ccccn2)cc1 [Example 3, 4-{[(Z)-(2-oxo-1,2-dihydro-3H-indol-3-ylidene)methyl]amino}-N-(2-pyridinyl)benzenesulfonamide]"
